The term IC50 denotes the midpoint of a concentration-inhibition curve. The term EC50 denotes the concentration at which the effect is half-maximal.

Entries after “also recorded” stand apart in the source; their conditions may differ. Where two headings read alike, the source gives them in different places. Bounds are passed on as bounds.

Series [1] can be described thus: Cytotoxicity assay (MTS tetrazolium) on Vero 76 cells. The conditions noted are these: African green monkey.
Series [2] deals with SARS-CoV-2. Nature of the series: microbe, parasite or virus in culture. Type of series: cell-based. Particulars: for inhibition of SARS-CoV-2 by monoterpenes (in words): 72 h incubation.
The nature of series [3]: in vitro. Particulars: African green monkey.
Where [4] appears, read: Severe acute respiratory syndrome coronavirus 2, Vero 76, 72 h, monoterpenes, infected Vero 76 cells, 0.02 MOI, 72 h, MTT, tested 1,000–4.91 μM, mean ± SD, read-out: EC50 SARS-Cov2.
The mark [5] stands for this setting: monoterpenes, infected Vero 76 cells, 0.02 MOI, 72 h, MTT, tested 1,000–4.91 μM, mean ± SD, read-out: EC50 SARS-Cov2.
Where [6] appears, read: Severe acute respiratory syndrome coronavirus 2, Vero 76, 72 h, read-out: EC50 SARS-Cov2, monoterpenes, infected Vero 76 cells, 0.02 MOI, 72 h, MTT, tested 1,000–4.91 μM, mean ± SD.
Where [7] appears, read: read-out: EC50 SARS-Cov2, monoterpenes, infected Vero 76 cells, 0.02 MOI, 72 h, MTT, tested 1,000–4.91 μM, mean ± SD.

Take `CC12CCC(CC1)C(C)(C)O2` [1,8-Cineol]: the IC50 in series [1] is > 1000 µM. Besides, the EC50 is > 100 µM in series [2] (setting [4]) and 129 ± 15 µM in series [2] (setting [5]).
In series [3], `Cc1ccc(C(C)C)cc1O` [Carvacrol] had an IC50 of 455 ± 31.1 µM. Moreover, the EC50 in series [2] (setting [6]) was 86.5 ± 12.7 µM; in series [2] (setting [7]), 80.2 ± 6.07 µM; in series [2] (read-out: EC50 SARS-Cov2, monoterpenes, infected Vero 76 cells, 0.02 MOI, 72 h, MTT, tested 1,000–4.91 μM, mean ± SD, listed as carvacrol), < 100 µM.
Turning to `C=C(C)C1CC=C(C)C(=O)C1` (centres unmarked) [Carvone], the IC50 in series [1] was > 1000 µM. Further, the EC50 was 80.2 ± 6.07 µM in series [2] (setting [4]) and 86.5 ± 12.7 µM in series [2] (setting [5]).
Consider `CCN(CC)CCCC(C)Nc1ccnc2cc(Cl)ccc12` (centres unmarked) [Chloroquine, reference compound], for which the 50% inhibitory concentration (IC50) in series [3] was > 1000 µM. For the same molecule, in series [2] (setting [4]), the EC50 is 7.57 ± 1.18 µM.
As to `C=C(C)C1CC=C(C)CC1` (centres unmarked) [Limonene], the IC50 in series [1] is > 1000 µM. Further, in series [2] (Severe acute respiratory syndrome coronavirus 2, Vero 76, 72 h, read-out: EC50 SARS-Cov2), the EC50 was > 1000 µM.
As to `C=CC(C)(O)CCC=C(C)C` (centres unmarked) [Linalool], in series [3], the IC50 is > 1000 µM. The EC50 in series [2] (setting [6]) is > 1000 µM. In addition, the “inhibition of SARS-CoV-2 by monoterpenes (in words)” value (shortened to “inhibition … (in words)”) in series [2] (infected Vero 76 cells) is on record as “did not inhibit the SARS-CoV-2 at any significant rate; also recorded: Absence of activity”.
As for `Cc1coc2c1CCC(C)C2` (centres unmarked) [Menthofuran], in series [3], the IC50 came out at 506 ± 76.4 µM. Besides, the EC50 is > 100 µM in series [2] (setting [6]) and 154 ± 16.3 µM in series [2] (setting [7]).
As for `CC1CCC(C(C)C)C(O)C1` (centres unmarked) [Menthol], the IC50 in series [1] is > 1000 µM. Also, in series [2] (setting [4]), the EC50 is > 1000 µM. In addition, the “inhibition … (in words)” value in series [2] (infected Vero 76 cells) was “did not inhibit the SARS-CoV-2 at any significant rate; also recorded: Absence of activity”.
Turning to `CC(C)[C@@H]1CC[C@@H](C)CC1=O` [Menthone], the IC50 in series [1] was > 1000 µM. Also, the EC50 in series [2] (setting [4]) was > 1000 µM. The “inhibition … (in words)” value in series [2] (infected Vero 76 cells) is given as “did not inhibit the SARS-CoV-2 at any significant rate; also recorded: Absence of activity”.
`CC(C)=C1CC[C@@H](C)CC1=O` [Pulegone]: the IC50 in series [3] is > 1000 µM. Besides, the EC50 in series [2] (setting [6]) was > 100 µM; in series [2] (setting [7]), 196 ± 17.1 µM.
As for `CC1=CCC(O)(C(C)C)CC1` (centres unmarked) [Terpinen-4-ol], in series [1], the IC50 is > 1000 µM. In addition, the EC50 in series [2] (setting [4]) was > 1000 µM. Also, the “inhibition … (in words)” value in series [2] (infected Vero 76 cells) is recorded as “did not inhibit the SARS-CoV-2 at any significant rate; also recorded: Absence of activity”.
As for `Cc1ccc(C(C)C)c(O)c1` [Thymol], in series [1], half-maximal inhibition (IC50) required 509 ± 31.5 µM. The “rate of SARS-Cov-2 inhibition” value in series [2] (infected Vero 76 cells, 72 h, concentration not given) is given as 58.54 ± 10.45%. In addition, the “inhibition … (in words)” value in series [2] (infected Vero 76 cells) was “limited antiviral activity”.
Turning to `Cc1ccc(C(C)C)cc1` [p-Cymene], the IC50 in series [1] was > 1000 µM. Moreover, in series [2] (setting [4]), the EC50 is > 1000 µM. Besides, in series [2] (infected Vero 76 cells), the “inhibition … (in words)” value was “did not inhibit the SARS-CoV-2 at any significant rate; also recorded: Absence of activity”.
Regarding `CC1=CC[C@@H](C(C)(C)O)CC1` [α-Terpineol], the IC50 in series [1] was > 1000 µM. Moreover, the EC50 in series [2] (setting [4]) was > 1000 µM. Moreover, in series [2] (infected Vero 76 cells), the “inhibition … (in words)” value is on record as “did not inhibit the SARS-CoV-2 at any significant rate; also recorded: Absence of activity”.

These data come from publication PMC9108200, “Antiviral Activity of Selected Lamiaceae Essential Oils and Their Monoterpenes Against SARS-Cov-2” (Frontiers in Pharmacology, 2022).
